# Test results reported in patent publication US9403842B2, “Prasugrel in non-crystalline form and pharmaceutical composition thereof” (ratiopharm GmbH, priority 2009, dated 2016).
# Test: pH-dependent degradation
# Type: physicochemical
# Conditions: pH values of <3, after just 2 hours
# Procedure: At pH values of <3, degradation of more than 1% is observed after just 2 hours. This restricts the possible excipients used in the production of pharmaceutical formulations.
structure (smiles),measurement,value
"CC(=O)Oc1cc2c(s1)CCN(C(C(=O)C1CC1)c1ccccc1F)C2 (stereo not drawn) [prasugrel, 2-acetoxy-5-(α-cyclopropylcarbonyl-2-fluorobenzyl)-4,5,6,7-tetrahydrothieno[3,2-c]pyridine]",degradation,more than 1%
